Reference: patent publication US20250268859A1, “OXAFURAMINE, (1R)-N-ETHYL-1-[(2R)-OXOLAN-2-YL]-2-[…], HYDROCHLORIDE AND DERIVATIVES THEREOF FOR TREATING ALZHEIMER'S DISEASE (AD), […] […], […] WITH LEWY BODIES (DLB), MIXED […], FRON[…] DEGENERATION (FTLD), AND PARKINSON'S DISEASE (PD)” (NLS Pharmaceutics AG, priority 2021, published 2025)
Where a name gives a salt, the structure may show the parent alone.

Legend:
Format in all cases: in vivo, C57BL/6J, male
[1] = system: memory (recognition of the familiar object) in mice; assay: Novel Object Recognition (NOR) test in mice; details: mean, N = 16
Method: The test was carried out in circular boxes (30 cm diameter, 40 cm high). The objects to be discriminated (L≈1≈h≈3-4 cm) differed in both color and shape and were referred as yellow duck and blue lego. They were fixed with a magnet to the floor of the boxes at 5 cm of the wall, 20 cm distant. Apparently, they have no natural significance for mice and they have never been associated with a reinforcement. In order to rule out the possibility of scent traces left on the objects and therefore the dependency of the recognition capacity of mice on the olfactory cue, the objects and the ground of the box were washed with an odorless disinfectant (Sanicid® diluted in water) and dried between each trial. A camcorder was fixed to the ceiling above the box to record the animals' activity. The experiment was analyzed blindly at a later time.
On the week before the test, animals were handled by the experimenter in charge of the experiment in order to be not stressed at the time of testing. For this purpose, the experimenter placed a small amount of litter, and then the mouse on its hand.
The NOR test was completed over five days (see FIG. 1): • Day 1: Habituation trial. Animals were individually placed for a 15-min free exploration session in empty open boxes. • Day 2. Treatment administration and sample trial. […] They were individually placed 30 min after in the apparatus for a 6-min session with two identical objects (Duck, 50% of animals or Lego, 50% of animals). • Day 3. Choice trial. The mice were individually placed for a 6-min session in the apparatus with two objects (Duck and Lego), one of the objects presented in sample trials (termed as familiar objects) and a novel object (Lego, 50% of animals or Duck, 50% of animals).
The sample and choice trials were recorded with the camera located above the apparatus. The time spent by mice in exploring the objects was measured during the sample trial and the choice trial. Exploration of an object was defined as follows: directing the nose to the object at a distance≤2 cm and/or touching it with the nose or forelimbs; turning around or biting the object, or sitting on the object were not considered as exploratory behavior.
• L=exploration time of the left object in the sample trial. • R=exploration time of the right object in the sample trial. • N=exploration time of the new object in the choice trial. • F=exploration time of the familiar object in the choice trial.
• Exploration indices: • ST=L+R=exploration time (left object+right object) in the sample trial. • CT=N+F=exploration time (new object+familiar object) in the choice trial. • Two memory indices: • N-F=difference of exploration time between the new object and the familiar object in the choice trial.
(§1) Statistical analyses: • Read-outs: DI, N-F, ST, CT, N, F • Unpaired Student's t test: Donep 2 group vs. Control group. • One-way ANOVA, Dunnett test: • NLS-12 groups vs. Control group. • NLS-12 groups vs. Donep 2 group. • Read-outs: DI and N-F, for all groups, paired Student's t test, difference vs. 0. • Body weight: one-way ANOVA.

[2] = Body weight of the mice in the NOR study; details: Donepezil 2 mg/kg i.p. group; mean, N = 16
Text: as §1

[3] = system: memory (recognition of the familiar object) in mice; assay: Novel Object Recognition (NOR) test in mice; details: Donepezil 2 mg/kg i.p., 72 h post treatment, mean, N = 16

COc1cc2c(cc1OC)C(=O)C(CC1CCN(Cc3ccccc3)CC1)C2 (stereo not shown) [Donepezil, Donepezil hydrochloride, reference compound]
N − F Exploration time novel − familiar object ([1]; Donepezil 2 mg/kg i.p. 30 min before sample trial, choice trial): 4.3 s
ST Exploration time in the sample trial ([1]; Donepezil 2 mg/kg i.p., 30 min post treatment): 20.2 s
ST Exploration time in the sample trial (s) ([1]; Donepezil 2 mg/kg i.p., 30 min post treatment, hydrochloride): decreased the exploration time during the sample trial
N Exploration time of novel object ([1]; Donepezil 2 mg/kg i.p., choice trial): 13.1 s
BW Body weight [2]: 23.2 g
CT Exploration time in the choice trial (s) = N + F [3]: 21.7 s
CT Exploration time in the choice trial (s) = N + F ([3]; hydrochloride): did not significantly modify the exploration time during the choice trial
